According to ChEMBL document CHEMBL4219059, “Synthesis and biological evaluation of cyclopeptide GG-8-6 and its analogues as anti-hepatocellular carcinoma agents” (Bioorg Med Chem, 2018):
pIC50: −log10 of the molar value. One block for each molecule: values may come before it. Active and inactive are the calls of the source. The rule behind the calls is not given here. Peptide text beside a SMILES is read from it.

How the values were obtained:
[1] = test system: HepG2; experiment: Antiproliferative activity against human HepG2 cells after 24 hrs by MTT assay; type: functional, cell-based; details: HepG2, 24 h
[2] = test system: SMMC-7721; experiment: Antiproliferative activity against human SMMC7721 cells after 24 hrs by MTT assay; type: functional, cell-based; details: SMMC-7721, 24 h
[3] = test system: SMMC-7721; experiment: Induction of apoptosis in human SMMC7721 cells assessed as early apoptotic cells at 10 uM after 24 hrs by Annexin V-FITC/propidium iodide staining based flow cytometry (reference value: 2%); type: functional
[4] = test system: SMMC-7721; experiment: Antitumor activity against human SMMC7721 cells xenografted in Balb/c nude mouse assessed as tumor growth inhibition at 40 mg/kg, ip for 32 days relative to control; type: functional; details: SMMC-7721, ip, 768 h, read-out: TGI
[5] = test system: Mus musculus; experiment: Toxicity in Balb/c nude mouse xenografted with human SMMC7721 cells assessed as body weight level at 40 mg/kg, ip for 32 days (reference value: 25.4 +/- 1.8 g); type: organism-based; details: in vivo, 768 h
[6] = test system: SMMC-7721; experiment: Induction of morphological changes in tumor of human SMMC7721 cells xenografted Balb/c nude mouse assessed as appearance of shrunken nuclei at 40 mg/kg, ip for 32 days by hematoxylin/eosin staining based microscopic analysis; type: functional, organism-based
[7] = test system: SMMC-7721; experiment: Cell cycle arrest in human SMMC7721 cells assessed as G2/M phase accumulation at 20 uM after 24 hrs by propidium iodide staining based flow cytometry relative to control; type: functional
[8] = test system: Mus musculus; experiment: Toxicity in Balb/c nude mouse xenografted with human SMMC7721 cells assessed as body weight level at 16 mg/kg, ip for 32 days (reference value: 25.4 +/- 1.8 g); type: organism-based; details: in vivo, 768 h
[9] = test system: SMMC-7721; experiment: Antitumor activity against human SMMC7721 cells xenografted in Balb/c nude mouse assessed as tumor growth inhibition at 16 mg/kg, ip for 32 days relative to control; type: functional; details: SMMC-7721, ip, 768 h, read-out: TGI
[10] = test system: SMMC-7721; experiment: Induction of apoptosis in human SMMC7721 cells assessed as early apoptotic cells at 30 uM after 24 hrs by Annexin V-FITC/propidium iodide staining based flow cytometry (reference value: 2%); type: functional
[11] = test system: SMMC-7721; experiment: Induction of apoptosis in human SMMC7721 cells assessed as late apoptotic cells at 10 uM after 24 hrs by Annexin V-FITC/propidium iodide staining based flow cytometry (reference value: 0.7%); type: functional
[12] = test system: SMMC-7721; experiment: Induction of apoptosis in human SMMC7721 cells assessed as late apoptotic cells at 20 uM after 24 hrs by Annexin V-FITC/propidium iodide staining based flow cytometry (reference value: 0.7%); type: functional
[13] = test system: SMMC-7721; experiment: Antitumor activity against human SMMC7721 cells xenografted in Balb/c nude mouse assessed as tumor growth inhibition dosed intraperitoneally for 32 days; type: functional, organism-based
[14] = test system: SMMC-7721; experiment: Induction of apoptosis in human SMMC7721 cells assessed as late apoptotic cells at 30 uM after 24 hrs by Annexin V-FITC/propidium iodide staining based flow cytometry (reference value: 0.7%); type: functional
[15] = test system: SMMC-7721; experiment: Induction of apoptosis in human SMMC7721 cells assessed as early apoptotic cells at 20 uM after 24 hrs by Annexin V-FITC/propidium iodide staining based flow cytometry (reference value: 2%); type: functional
[16] = test system: SMMC-7721; experiment: In vivo induction of apoptosis in human SMMC7721 cells xenografted in Balb/c nude mouse assessed as activation of caspase-3 dosed intraperitoneally for 32 days by IHC analysis; type: functional, organism-based
[17] = test system: SMMC-7721; experiment: Induction of apoptosis in human SMMC7721 cells assessed as chromatin condensation at 10 to 30 uM after 24 hrs by DAPI staining based laser confocal microscopy; type: functional, cell-based
[18] = test system: SMMC-7721; experiment: Induction of morphological changes in tumor of human SMMC7721 cells xenografted Balb/c nude mouse assessed as reduction in number of nuclei at 40 mg/kg, ip for 32 days by hematoxylin/eosin staining based microscopic analysis; type: functional, organism-based
[19] = test system: SMMC-7721; experiment: Antitumor activity against human SMMC7721 cells xenografted in Balb/c nude mouse assessed as tumor growth inhibition at 8 mg/kg, ip for 32 days relative to control; type: functional; details: SMMC-7721, ip, 768 h, read-out: TGI
[20] = test system: Mus musculus; experiment: Toxicity in Balb/c nude mouse xenografted with human SMMC7721 cells assessed as body weight level at 8 mg/kg, ip for 32 days (reference value: 25.4 +/- 1.8 g); type: organism-based; details: in vivo, 768 h
[21] = test system: SMMC-7721; experiment: Cell cycle arrest in human SMMC7721 cells assessed as G2/M phase accumulation at 10 uM after 24 hrs by propidium iodide staining based flow cytometry relative to control; type: functional
[22] = test system: SMMC-7721; experiment: Induction of morphological changes in tumor of human SMMC7721 cells xenografted Balb/c nude mouse induction of nuclei and cytoplasm non-uniform distribution at 40 mg/kg, ip for 32 days by hematoxylin/eosin staining based microscopic analysis; type: functional, organism-based
[23] = test system: SMMC-7721; experiment: Induction of apoptosis in human SMMC7721 cells assessed as increase in cleaved caspase-3 protein expression after 24 hrs by Western blot method; type: functional, cell-based
[24] = test system: SMMC-7721; experiment: Induction of apoptosis in human SMMC7721 cells assessed as increase in cleaved caspase-9 protein expression after 24 hrs by Western blot method; type: functional, cell-based
[25] = test system: SMMC-7721; experiment: Induction of apoptosis in human SMMC7721 cells assessed as increase in cleaved caspase-8 protein expression after 24 hrs by Western blot method; type: functional, cell-based
[26] = test system: SMMC-7721; experiment: In vivo induction of apoptosis in human SMMC7721 cells xenografted in Balb/c nude mouse at 8 to 40 mg/kg, ip for 32 days by TUNEL assay; type: functional, organism-based
[27] = test system: SMMC-7721; experiment: Cell cycle arrest in human SMMC7721 cells assessed as G2/M phase accumulation at 30 uM after 24 hrs by propidium iodide staining based flow cytometry relative to control; type: functional
[28] = test system: SMMC-7721; experiment: Induction of apoptosis in human SMMC7721 cells assessed as increase in cleaved PARP protein expression after 24 hrs by Western blot method; type: functional, cell-based
[29] = test system: SMMC-7721; experiment: Cell cycle arrest in human SMMC7721 cells assessed as G2/M phase accumulation at 2.5 uM after 24 hrs by propidium iodide staining based flow cytometry relative to control; type: functional

pIC50 [1]: < 4.00 | pIC50 [2]: < 4.00
SMILES: CC[C@H](C)[C@@H]1NC(=O)[C@@H]2CCCN2C(=O)[C@H](C(C)C)NC(=O)[C@H](CC(C)C)NC(=O)[C@H](C(C)C)NC1=O (cyclo(IVLVP))

pIC50 [1]: < 4.00 | pIC50 [2]: 4.37
SMILES: CC[C@H](C)[C@@H]1NC(=O)[C@@H]2CCCN2C(=O)[C@H](CC(C)C)NC(=O)[C@H](C(C)C)NC(=O)[C@H](CC(C)C)NC(=O)[C@H](C(C)C)NC(=O)[C@H](CC(C)C)NC(=O)[C@H](C)NC(=O)[C@H](CC(C)C)NC1=O (cyclo(ALVLVLPIL))

pIC50 [1]: 4.91 | pIC50 [2]: 5.20
SMILES: CC[C@H](C)[C@@H]1NC(=O)[C@@H]2CCCN2C(=O)[C@H](CC(C)C)NC(=O)[C@H](C(C)C)NC(=O)[C@H](CC(C)C)NC(=O)[C@H](C(C)C)NC(=O)[C@H](CC(C)C)NC(=O)[C@H](CC(C)C)NC(=O)[C@H](CC(C)C)NC1=O (cyclo(ILLLVLVLP))
Activity [3]: 1.6 - 3.6% | inhibition in vivo at 40 mg/kg [4]: 67.9% | Activity [5]: 21.1 g | Activity [6]: Active | Activity [7]: 9.6% | Activity [8]: 22.7 g | inhibition in vivo at 16 mg/kg [9]: 57% | Activity [10]: 84.5 - 86.5% | Activity [11]: 0.4% | Activity [12]: 2.8% | TGI [13]: Dose-dependent effect | Activity [14]: 2.6% | Activity [15]: 36.6 - 38.6% | Activity [16]: Dose-dependent effect | Activity [17]: Active | Activity [18]: Active | inhibition in vivo at 8 mg/kg [19]: 26.1% | Activity [20]: 22.2 g | Activity [21]: 5.9% | Activity [22]: Active | Activity [23]: Dose-dependent effect | Activity [24]: Dose-dependent effect | Activity [25]: Dose-dependent effect | Activity [26]: Dose-dependent effect | Activity [27]: 12% | Activity [28]: Dose-dependent effect

pIC50 [1]: 4.40 | pIC50 [2]: 4.31
SMILES: CC[C@H](C)[C@@H]1NC(=O)[C@@H]2CCCN2C(=O)[C@H](C)NC(=O)[C@H](C(C)C)NC(=O)[C@H](CC(C)C)NC(=O)[C@H](C(C)C)NC(=O)[C@H](CC(C)C)NC(=O)[C@H](CC(C)C)NC(=O)[C@H](CC(C)C)NC1=O (cyclo(APILLLVLV))

pIC50 [1]: < 4.00 | pIC50 [2]: < 4.00
SMILES: CC[C@H](C)[C@@H]1NC(=O)[C@@H]2CCCN2C(=O)[C@H](CC(C)C)NC(=O)[C@H](C(C)C)NC(=O)[C@H](CC(C)C)NC(=O)[C@H](C(C)C)NC(=O)[C@H](CC(C)C)NC1=O (cyclo(ILVLVLP))

pIC50 [1]: 4.25 | pIC50 [2]: 4.44
SMILES: CC(C)C[C@@H]1NC(=O)[C@H](C)NC(=O)[C@@H]2CCCN2C(=O)[C@H](CC(C)C)NC(=O)[C@H](C(C)C)NC(=O)[C@H](CC(C)C)NC(=O)[C@H](C(C)C)NC(=O)[C@H](CC(C)C)NC(=O)[C@H](CC(C)C)NC1=O (cyclo(ALLLVLVLP))

SMILES: COc1cc([C@@H]2c3cc4c(cc3[C@@H](O[C@@H]3O[C@@H]5CO[C@@H](C)O[C@H]5[C@H](O)[C@H]3O)[C@H]3COC(=O)[C@H]23)OCO4)cc(OC)c1O [ETOPOSIDE]
Activity [29]: 44.9%
